Patent publication US9322066B2, “Predictors for cancer treatment” (priority 2011, dated 2016)

Test system: relapsed or refractory, rituximab-naive or -sensitive follicular B-cell NHL
Assay: Time to next anti-lymphoma therapy, Vc-R vs rituximab study, by biomarker
Assay type: in vivo, human
Set-up: Median, Time to Next Anti-Lymphoma Therapy / Time to Next Anti-Lymphoma Therapy, Median: unit not given here
Text: Non-Hodgkin lymphoma (NHL) encompasses several unique malignant lymphoid disease entities that vary in clinical behavior, morphologic appearance, immunologic, and molecular phenotype. […] A randomized, open-label, active-controlled, multicenter, multinational, prospective study to compare the efficacy and safety of the combination of bortezomib and rituximab (Vc-R) to single-agent rituximab in subjects who have relapsed or refractory, rituximab-naive or -sensitive follicular B-cell NHL was performed.
Subjects were centrally randomized to Treatment Groups A (Vc-R) or B (rituximab) in a 1:1 ratio taking into account the following stratification factors: • Follicular Lymphoma International Prognostic Index (FLIPI) score (low [0 or 1 factor], intermediate [2 factors], high [≧3 factors]); • Prior rituximab therapy (yes, no); • Time since last dose of anti-lymphoma therapy (≦1 year, >1 year); • Region (United States/Canada, European Union, Rest of World).
The following clinical endpoints were included in the analysis within each treatment group and an overall comparison was made with the biomarker-related endpoints: Progression-free survival, defined as the interval between the date of randomization and the date of progressive disease (PD) or death, whichever is first reported in the ITT population; overall survival; overall response rate (complete response [CR]+CR unconfirmed [CRu]+partial response [PR]); overall CR rate (CR+CRu); duration of response; time to next anti-lymphoma therapy; and treatment free interval.

[1] = 20S % NUCLEAR STAINING: 0-20, Female, IRC Review
[2] = 20S % NUCLEAR STAINING: 60-70, Male, IRC Review
[3] = 20S % NUCLEAR STAINING: 60-70, Prior Rituximab Therapy, IRC Review
[4] = 20S INTENSITY CYTOPLASMIC SIGNAL: ≧3+, European Union, IRC Review
[5] = 20S INTENSITY CYTOPLASMIC SIGNAL: ≧3+, Male, IRC Review
[6] = BCL2/A43G: MND, subgroup White, IRC review
[7] = BCL2/C.-11C > T: MND, subgroup White, IRC review
[8] = BCL2/E29K: MND, subgroup White, IRC review
[9] = BCL2/P46L: MND, subgroup White, IRC review
[10] = BCL2/P46S: MND, subgroup White, IRC review
[11] = BCL2/P59L: MND, subgroup White, IRC review
[12] = BCL2/P59S: MND, subgroup White, IRC review
[13] = BCL2/Q52P: MND, subgroup White, IRC review
[14] = BCL2/R106H: MND, subgroup White, IRC review
[15] = CD68 OVERALL POSITIVE: 0-25, 2 Prior Lines of Therapy, IRC Review
[16] = CD68 OVERALL POSITIVE: 0-25, >1 year since last anti-lymphoma treatment, IRC Review
[17] = CD68 OVERALL POSITIVE: 0-25, Ann Arbor Stage III, IRC Review
[18] = CD68 OVERALL POSITIVE: 0-25, Ann Arbor Stage IV, IRC Review
[19] = CD68 OVERALL POSITIVE: 0-25, European Union, IRC Review
[20] = CD68 OVERALL POSITIVE: 0-25, Female, IRC Review
[21] = CD68 OVERALL POSITIVE: 0-25, Intermediate FLIPI Score, IRC Review
[22] = CD68 OVERALL POSITIVE: 0-25, Low FLIPI Score, IRC Review
[23] = CD68 OVERALL POSITIVE: 0-25, Male, IRC Review
[24] = CD68 OVERALL POSITIVE: 0-25, No High Tumor Burden, IRC Review
[25] = CD68 OVERALL POSITIVE: 0-25, No Prior Rituximab Therapy, IRC Review
[26] = CD68 OVERALL POSITIVE: 0-25, No Subgroup, IRC Review
[27] = CD68 OVERALL POSITIVE: 0-25, Prior Rituximab Therapy, IRC Review
[28] = CD68 OVERALL POSITIVE: 0-25, White, IRC Review
[29] = CD68 OVERALL POSITIVE: 0-25, ≦65 years old, IRC Review
[30] = CD68 OVERALL POSITIVE: >75, Male, IRC Review
[31] = CD68 POSITIVE FOLLICULAR: 0-25, >1 year since last anti-lymphoma treatment, IRC Review
[32] = CD68 POSITIVE FOLLICULAR: 0-25, Ann Arbor Stage III, IRC Review
[33] = CD68 POSITIVE FOLLICULAR: 0-25, Asian, IRC Review
[34] = CD68 POSITIVE FOLLICULAR: 0-25, Female, IRC Review
[35] = CD68 POSITIVE FOLLICULAR: 0-25, Intermediate FLIPI Score, IRC Review
[36] = CD68 POSITIVE FOLLICULAR: 0-25, No High Tumor Burden, IRC Review
[37] = CD68 POSITIVE FOLLICULAR: 0-25, No Prior Rituximab Therapy, IRC Review
[38] = CD68 POSITIVE FOLLICULAR: 0-25, No Subgroup, IRC Review
[39] = CD68 POSITIVE FOLLICULAR: 0-25, White, IRC Review
[40] = CD68 POSITIVE FOLLICULAR: 0-25, ≦65 years old, IRC Review
[41] = CD68 POSITIVE PERIFOLLICULAR: 0-25, 2 Prior Lines of Therapy, IRC Review
[42] = CD68 POSITIVE PERIFOLLICULAR: 0-25, >1 year since last anti-lymphoma treatment, IRC Review
[43] = CD68 POSITIVE PERIFOLLICULAR: 0-25, Ann Arbor Stage IV, IRC Review
[44] = CD68 POSITIVE PERIFOLLICULAR: 0-25, Female, IRC Review
[45] = CD68 POSITIVE PERIFOLLICULAR: 0-25, Intermediate FLIPI Score, IRC Review
[46] = CD68 POSITIVE PERIFOLLICULAR: 0-25, No High Tumor Burden, IRC Review
[47] = CD68 POSITIVE PERIFOLLICULAR: 0-25, No Prior Rituximab Therapy, IRC Review
[48] = CD68 POSITIVE PERIFOLLICULAR: 0-25, No Subgroup, IRC Review

In the case of rituximab, the “Evt/N, Time to Next Anti-Lymphoma Therapy” value (“Evt/N, Time” below) [1] is reported as 35/61, the “Median, Time to Next Anti-Lymphoma Therapy” value (“Median, Time” for short) [1] is reported as 568 and the “Evt/N, Time” value [2] is reported as 14/16. The “Median, Time” value [2] was 247, the “Evt/N, Time” value [3] was 17/21 and the “Median, Time” value [3] was 343. The “Evt/N, Time” value [4] was 34/52, the “Median, Time” value [4] was 533 and the “Evt/N, Time” value [5] was 20/27. For the same substance, the “Median, Time” value [5] was 421, the “Median, Time” value (BCL2/A43G: MND, subgroup Ann Arbor Stage IV, IRC review) was 450 and the “Evt/N, Time” value [6] was 89/140. The “Median, Time” value [6] was 504, the “Median, Time” value (BCL2/C.-11C > T: MND, subgroup Ann Arbor Stage IV, IRC review) was 450 and the “Evt/N, Time” value [7] was 110/168. For the same substance, the “Median, Time” value [7] was 504, the “Evt/N, Time” value [8] was 83/129 and the “Median, Time” value [8] was 485. The “Evt/N, Time” value [9] was 74/117, the “Median, Time” value [9] was 505 and the “Evt/N, Time” value [10] was 81/130. The “Median, Time” value [10] was 505, the “Evt/N, Time” value [11] was 80/129 and the “Median, Time” value [11] was 533. For the same substance, the “Evt/N, Time” value [12] was 81/128, the “Median, Time” value [12] was 505 and the “Evt/N, Time” value [13] was 85/135. The “Median, Time” value [13] was 504, the “Evt/N, Time” value [14] was 93/140 and the “Median, Time” value [14] was 501. The “time to next treatment interval” value (Biomarker positive (PSMB1 P11A heterozygote and CD68 Low)) was 14.8 mo, the “Evt/N, Time” value [15] was 6/8 and the “Median, Time” value [15] was 204. The “Evt/N, Time” value [16] was 17/26, the “Median, Time” value [16] was 409 and the “Evt/N, Time” value [17] was 12/16. The “Median, Time” value [17] was 276, the “Evt/N, Time” value [18] was 15/22 and the “Median, Time” value [18] was 434. For the same substance, the “Evt/N, Time” value [19] was 14/22, the “Median, Time” value [19] was 374 and the “Evt/N, Time” value [20] was 16/26. For the same substance, the “Median, Time” value [20] was 434, the “Evt/N, Time” value [21] was 7/11 and the “Median, Time” value [21] was 485. The “Evt/N, Time” value [22] was 8/10, the “Median, Time” value [22] was 422 and the “Evt/N, Time” value [23] was 14/18. The “Median, Time” value [23] was 251, the “Evt/N, Time” value [24] was 8/14 and the “Median, Time” value [24] was 552. The “Evt/N, Time” value [25] was 12/19, the “Median, Time” value [25] was 533 and the “Evt/N, Time” value [26] was 30/44. For the same substance, the “Median, Time” value [26] was 409, the “Evt/N, Time” value [27] was 18/25 and the “Median, Time” value [27] was 235. For the same substance, the “Evt/N, Time” value [28] was 24/35, the “Median, Time” value [28] was 409 and the “Evt/N, Time” value [29] was 24/34. The “Median, Time” value [29] was 374, the “Evt/N, Time” value (CD68 OVERALL POSITIVE: 51-75, No High Tumor Burden, IRC Review) was 10/25 and the “Evt/N, Time” value [30] was 8/9. The “Median, Time” value [30] was 427, the “Evt/N, Time” value [31] was 22/34 and the “Median, Time” value [31] was 550. For the same substance, the “Evt/N, Time” value [32] was 19/24, the “Median, Time” value [32] was 332 and the “Evt/N, Time” value [33] was 5/6. The “Median, Time” value [33] was 220, the “Evt/N, Time” value [34] was 23/37 and the “Median, Time” value [34] was 462. The “Evt/N, Time” value [35] was 14/20, the “Median, Time” value [35] was 421 and the “Evt/N, Time” value [36] was 14/22. The “Median, Time” value [36] was 573, the “Evt/N, Time” value [37] was 23/36 and the “Median, Time” value [37] was 485. The “Evt/N, Time” value [38] was 40/60, the “Median, Time” value [38] was 462 and the “Evt/N, Time” value [39] was 32/48. For the same substance, the “Median, Time” value [39] was 462, the “Evt/N, Time” value [40] was 33/46 and the “Median, Time” value [40] was 332. The “Evt/N, Time” value [41] was 6/8, the “Median, Time” value [41] was 171 and the “Evt/N, Time” value [42] was 15/24. For the same substance, the “Median, Time” value [42] was 533, the “Evt/N, Time” value [43] was 11/15 and the “Median, Time” value [43] was 374. The “Evt/N, Time” value [44] was 19/28, the “Median, Time” value [44] was 374 and the “Evt/N, Time” value [45] was 7/13. For the same substance, the “Median, Time” value [45] was 501, the “Evt/N, Time” value [46] was 8/13 and the “Median, Time” value [46] was 501. The “Evt/N, Time” value [47] was 12/18, the “Median, Time” value [47] was 533 and the “Evt/N, Time” value [48] was 26/39. The “Median, Time” value [48] was 374.
